Assay results reported in patent US10442807B2, “Aryl substituted bicyclic compounds as herbicides” (FMC Corporation, priority 2015, dated 2019).

Tests used:
Assay type in all cases: in vivo
[1] = system: foxtail, giant (giant foxtail, Setaria faberii); experiment: Test A postemergence application, visual injury rating; conditions: approx. 10 d, 0 = no effect, 100 = complete control
Description: (§1) Seeds of plant species selected from barnyardgrass (Echinochloa crus-galli), kochia (Kochia scoparia), ragweed (common ragweed, Ambrosia elation), ryegrass, Italian (Italian ryegrass, Lolium multiflorum), foxtail, giant (giant foxtail, Setaria faberii), and pigweed (Amaranthus retroflexus), were planted into a blend of loam soil and sand and treated preemergence with a directed soil spray using test chemicals formulated in a non-phytotoxic solvent mixture which included a surfactant. At the same time, plants selected from these weed species and also blackgrass (Alopecurus myosuroides), galium (catchweed bedstraw, Galium aparine), wheat (Triticum aestivum), and corn (Zea mays) were planted in pots containing the same blend of loam soil and sand and treated with postemergence applications of test chemicals formulated in the same manner. Plants ranged in height from 2 to 10 cm and were in the one- to two-leaf stage for the postemergence treatment. Treated plants and untreated controls were maintained in a greenhouse for approximately 10 d, after which time all treated plants were compared to untreated controls and visually evaluated for injury. Plant response ratings, summarized in Table A, are based on a 0 to 100 scale where 0 is no effect and 100 is complete control. A dash (-) response means no test result.

[2] = system: pigweed (Amaranthus retroflexus); experiment: as above; conditions: approx. 10 d, 0 = no effect, 100 = complete control
Description: as §1

[3] = system: ryegrass, Italian (Italian ryegrass, Lolium multiflorum); experiment: as above; conditions: approx. 10 d, 0 = no effect, 100 = complete control
Description: as §1

[4] = system: wheat (Triticum aestivum); experiment: as above; conditions: approx. 10 d, 0 = no effect, 100 = complete control
Description: as §1

[5] = system: galium (catchweed bedstraw, Galium aparine); experiment: as above; conditions: approx. 10 d, 0 = no effect, 100 = complete control
Description: as §1

[6] = system: barnyardgrass (Echinochloa crus-galli); experiment: as above; conditions: approx. 10 d, 0 = no effect, 100 = complete control
Description: as §1

[7] = system: corn (Zea mays); experiment: as above; conditions: approx. 10 d, 0 = no effect, 100 = complete control
Description: as §1

[8] = system: ragweed (common ragweed, Ambrosia elation); experiment: as above; conditions: approx. 10 d, 0 = no effect, 100 = complete control
Description: as §1

[9] = system: blackgrass (Alopecurus myosuroides); experiment: as above; conditions: approx. 10 d, 0 = no effect, 100 = complete control
Description: as §1

[10] = system: kochia (Kochia scoparia); experiment: as above; conditions: approx. 10 d, 0 = no effect, 100 = complete control
Description: as §1

[11] = system: foxtail, giant (giant foxtail, Setaria faberii); experiment: Test A preemergence, directed soil spray, visual injury rating; conditions: approx. 10 d, 0 = no effect, 100 = complete control
Description: as §1

[12] = system: pigweed (Amaranthus retroflexus); experiment: as above; conditions: approx. 10 d, 0 = no effect, 100 = complete control
Description: as §1

[13] = system: ryegrass, Italian (Italian ryegrass, Lolium multiflorum); experiment: as above; conditions: approx. 10 d, 0 = no effect, 100 = complete control
Description: as §1

[14] = system: barnyardgrass (Echinochloa crus-galli); experiment: as above; conditions: approx. 10 d, 0 = no effect, 100 = complete control
Description: as §1

[15] = system: ragweed (common ragweed, Ambrosia elation); experiment: as above; conditions: approx. 10 d, 0 = no effect, 100 = complete control
Description: as §1

[16] = system: kochia (Kochia scoparia); experiment: as above; conditions: approx. 10 d, 0 = no effect, 100 = complete control
Description: as §1

[17] = system: ducksalad (Heteranthera limosa); experiment: Test B flooded paddy test, visual plant response rating; conditions: 250 g ai/ha; applied to paddy water at 2-leaf stage; rated after 13 to 15 days; scale 0 to 100, 0 is no effect, 100 is complete control
Description: (§2) At time of treatment, test pots were flooded to 3 cm above the soil surface, treated by application of test compounds directly to the paddy water, and then maintained at that water depth for the duration of the test. Treated plants and controls were maintained in a greenhouse for 13 to 15 days, after which time all species were compared to controls and visually evaluated. Plant response ratings, summarized in Table B, are based on a scale of 0 to 100 where 0 is no effect and 100 is complete control. A dash (-) response means no test result.

[18] = system: barnyardgrass (Echinochloa crus-galli); experiment: as above; conditions: 250 g ai/ha; applied to paddy water at 2-leaf stage; rated after 13 to 15 days; scale 0 to 100, 0 is no effect, 100 is complete control
Description: as §2

[19] = system: rice (Oryza sativa); experiment: as above; conditions: 250 g ai/ha; applied to paddy water at 2-leaf stage; rated after 13 to 15 days; scale 0 to 100, 0 is no effect, 100 is complete control
Description: as §2

[20] = system: sedge, umbrella (small-flower umbrella sedge, Cyperus difformis); experiment: as above; conditions: 250 g ai/ha; applied to paddy water at 2-leaf stage; rated after 13 to 15 days; scale 0 to 100, 0 is no effect, 100 is complete control
Description: as §2

Structure (SMILES) | Foxtail, Giant plant response rating (0 to 100 scale) ([1]; 125 g ai/ha) | Foxtail, Giant plant response rating (0 to 100 scale) ([1]; 500 g ai/ha) | Pigweed plant response rating (0 to 100 scale) ([2]; 125 g ai/ha) | Pigweed plant response rating (0 to 100 scale) ([2]; 500 g ai/ha) | Ryegrass, Italian plant response rating (0 to 100 scale) ([3]; 125 g ai/ha) | Ryegrass, Italian plant response rating (0 to 100 scale) ([3]; 500 g ai/ha) | Wheat plant response rating (0 to 100 scale) ([4]; 125 g ai/ha) | Wheat plant response rating (0 to 100 scale) ([4]; 500 g ai/ha) | Galium plant response rating (0 to 100 scale) ([5]; 125 g ai/ha) | Galium plant response rating (0 to 100 scale) ([5]; 500 g ai/ha) | Barnyardgrass plant response rating (0 to 100 scale) ([6]; 125 g ai/ha) | Barnyardgrass plant response rating (0 to 100 scale) ([6]; 500 g ai/ha) | Corn plant response rating (0 to 100 scale) ([7]; 125 g ai/ha) | Corn plant response rating (0 to 100 scale) ([7]; 500 g ai/ha) | Ragweed plant response rating (0 to 100 scale) ([8]; 125 g ai/ha) | Ragweed plant response rating (0 to 100 scale) ([8]; 500 g ai/ha) | Blackgrass plant response rating (0 to 100 scale) ([9]; 125 g ai/ha) | Blackgrass plant response rating (0 to 100 scale) ([9]; 500 g ai/ha) | Kochia plant response rating (0 to 100 scale) ([10]; 125 g ai/ha) | Kochia plant response rating (0 to 100 scale) ([10]; 500 g ai/ha) | further results
CSc1ccccc1NC(=O)C1c2nncn2CC1c1ccc(C)c(C)c1 (centres unmarked) [Compound 18] | 0 | 20 | 0 | 0 | 0 | 0 | 0 | 0 | 20 | 20 | 0 | 30 | 0 | 0 | 0 | 0 | 0 | 0 | 20 | 20 | Foxtail, Giant plant response rating (0 to 100 scale) ([11]; 125 g ai/ha): 0; Foxtail, Giant plant response rating (0 to 100 scale) ([11]; 500 g ai/ha): 80; Pigweed plant response rating (0 to 100 scale) ([12]; 125 g ai/ha): 0; Pigweed plant response rating (0 to 100 scale) ([12]; 500 g ai/ha): 0; Ryegrass, Italian plant response rating (0 to 100 scale) ([13]; 125 g ai/ha): 0; Ryegrass, Italian plant response rating (0 to 100 scale) ([13]; 500 g ai/ha): 20; Barnyardgrass plant response rating (0 to 100 scale) ([14]; 125 g ai/ha): 20; Barnyardgrass plant response rating (0 to 100 scale) ([14]; 500 g ai/ha): 60; Ragweed plant response rating (0 to 100 scale) ([15]; 125 g ai/ha): 0; Ragweed plant response rating (0 to 100 scale) ([15]; 500 g ai/ha): 30; Kochia plant response rating (0 to 100 scale) ([16]; 125 g ai/ha): 0; Kochia plant response rating (0 to 100 scale) ([16]; 500 g ai/ha): 0; Plant response rating, Flood, Ducksalad [17]: 40; Plant response rating, Flood, Barnyardgrass [18]: 0; Plant response rating, Flood, Rice [19]: 0; Plant response rating, Flood, Sedge, Umbrella [20]: 0
Cc1nnc2n1CC(c1ccc(Cl)cc1)C2C(=O)Nc1ccccc1F (centres unmarked) [Compound 21] | 0 | 70 | 0 | 0 | 0 | 20 | 0 | 0 | 0 | 50 | 0 | 40 | 0 | 0 | 0 | 0 | 0 | 20 | 0 | 0 | Foxtail, Giant plant response rating (0 to 100 scale) ([11]; 125 g ai/ha): 0; Foxtail, Giant plant response rating (0 to 100 scale) ([11]; 500 g ai/ha): 70; Pigweed plant response rating (0 to 100 scale) ([12]; 125 g ai/ha): 0; Pigweed plant response rating (0 to 100 scale) ([12]; 500 g ai/ha): 0; Ryegrass, Italian plant response rating (0 to 100 scale) ([13]; 125 g ai/ha): 40; Ryegrass, Italian plant response rating (0 to 100 scale) ([13]; 500 g ai/ha): 40; Barnyardgrass plant response rating (0 to 100 scale) ([14]; 125 g ai/ha): 0; Barnyardgrass plant response rating (0 to 100 scale) ([14]; 500 g ai/ha): 40; Ragweed plant response rating (0 to 100 scale) ([15]; 125 g ai/ha): 0; Ragweed plant response rating (0 to 100 scale) ([15]; 500 g ai/ha): 0; Kochia plant response rating (0 to 100 scale) ([16]; 125 g ai/ha): 0; Kochia plant response rating (0 to 100 scale) ([16]; 500 g ai/ha): 40; Plant response rating, Flood, Ducksalad [17]: 40; Plant response rating, Flood, Barnyardgrass [18]: 0; Plant response rating, Flood, Rice [19]: 0; Plant response rating, Flood, Sedge, Umbrella [20]: 0
O=C(Nc1cccc(F)c1F)C1c2nnc(C(F)(F)F)n2CC1c1ccc(C(F)(F)F)cc1 (centres unmarked) [Compound 22, N-(2,3-difluorophenyl)-6,7-dihydro-3-(trifluoromethyl)-6-[4-(trifluoromethyl)phenyl]-5H-pyrrolo[2,1-c]-1,2,4-triazole-7-carboxamide] | 0 | 0 | 0 | 0 | 0 | 0 | 0 | 0 | 0 | 0 | 0 | 0 | 0 | 0 | 0 | 0 | 0 | 0 | 0 | 0 | Foxtail, Giant plant response rating (0 to 100 scale) ([11]; 125 g ai/ha): 0; Foxtail, Giant plant response rating (0 to 100 scale) ([11]; 500 g ai/ha): 30; Pigweed plant response rating (0 to 100 scale) ([12]; 125 g ai/ha): 0; Pigweed plant response rating (0 to 100 scale) ([12]; 500 g ai/ha): 0; Ryegrass, Italian plant response rating (0 to 100 scale) ([13]; 125 g ai/ha): 0; Ryegrass, Italian plant response rating (0 to 100 scale) ([13]; 500 g ai/ha): 0; Barnyardgrass plant response rating (0 to 100 scale) ([14]; 125 g ai/ha): 0; Barnyardgrass plant response rating (0 to 100 scale) ([14]; 500 g ai/ha): 20; Ragweed plant response rating (0 to 100 scale) ([15]; 125 g ai/ha): 0; Ragweed plant response rating (0 to 100 scale) ([15]; 500 g ai/ha): 0; Kochia plant response rating (0 to 100 scale) ([16]; 125 g ai/ha): 0; Kochia plant response rating (0 to 100 scale) ([16]; 500 g ai/ha): 0; Plant response rating, Flood, Ducksalad [17]: 30; Plant response rating, Flood, Barnyardgrass [18]: 0; Plant response rating, Flood, Rice [19]: 0; Plant response rating, Flood, Sedge, Umbrella [20]: 0
O=C(Nc1ccccc1F)C1C2=NCC(=O)N2CC1c1cccc(C(F)(F)F)c1 (centres unmarked) [Compound 3, N-(2-fluorophenyl)-2,3,6,7-tetrahydro-3-oxo-6-[3-(trifluoromethyl)phenyl]-5H-pyrrolo[1,2-a]imidazole-7-carboxamide] | 20 | 50 | 0 | 0 | 0 | 10 | 0 | 0 | 0 | 0 | 0 | 30 | 0 | 0 | 0 | 0 | 0 | 0 | 0 | 0 | Foxtail, Giant plant response rating (0 to 100 scale) ([11]; 125 g ai/ha): 0; Foxtail, Giant plant response rating (0 to 100 scale) ([11]; 500 g ai/ha): 80; Pigweed plant response rating (0 to 100 scale) ([12]; 125 g ai/ha): 0; Pigweed plant response rating (0 to 100 scale) ([12]; 500 g ai/ha): 0; Ryegrass, Italian plant response rating (0 to 100 scale) ([13]; 125 g ai/ha): 0; Ryegrass, Italian plant response rating (0 to 100 scale) ([13]; 500 g ai/ha): 0; Barnyardgrass plant response rating (0 to 100 scale) ([14]; 125 g ai/ha): 0; Barnyardgrass plant response rating (0 to 100 scale) ([14]; 500 g ai/ha): 60; Ragweed plant response rating (0 to 100 scale) ([15]; 125 g ai/ha): 0; Ragweed plant response rating (0 to 100 scale) ([15]; 500 g ai/ha): 0; Kochia plant response rating (0 to 100 scale) ([16]; 125 g ai/ha): 0; Kochia plant response rating (0 to 100 scale) ([16]; 500 g ai/ha): 0
